Publication PMC9127750, “Structure-based design of CDC42 effector interaction inhibitors for the treatment of cancer” (Cell reports, 2022)
Several values for one entry are separate records, joined by “and”; a condition that tells them apart may be missing. Equal entries are not always repeated.

Tested on: WM3248 melanoma cells, 486 antibodies
Assay: Reverse phase protein arrays (RPPA)
Assay type: cell-based, Human
Settings: 5 uM
Source text: Pellets were snap frozen in liquid nitrogen and shipped to MD Anderson Cancer Center core RPPA facility for RPPA analysis (Table S5). Three biological replicates for each sample were generated.
Nomenclatures on the RPPA heatmaps: name_of_antibody.species_of_antibody.status_of_antibody. V - antibody validated; C - validation of antibody in progress; Q - antibody nonspecific; E – under evaluation; antibodies raised in M - mouse, G - goat, R - rabbit, or T - rat.

CN(C)c1cccc(Nc2cc(-c3ccccc3)nc(C3CCNCC3)n2)c1 [ARN22089, N1,N1-dimethyl-N3-(6-phenyl-2-(piperidin-4-yl)pyrimidin-4-yl)benzene-1,3-diamine]
RPPA RIP3.R.C (single replicates): 0.966 and 1.053 and 1.158
RPPA RIP.R.C (single replicates): 1.003 and 0.876 and 0.747
RPPA RPA32.R.V (single replicates): 0.852 and 0.696
RPPA RPA32_pS4_S8.R.C (single replicates): 1.136 and 0.833 and 0.517
RPPA RRM1.R.C (single replicates): 0.879 and 1.059 and 1.047
RPPA RRM2.R.C (single replicates): 0.859 and 1.229 and 0.937
RPPA RSK1.R.V (single replicates): 1.126 and 0.877 and 0.665
RPPA RSK.R.C (single replicates): 1.019 and 0.958
RPPA Rab11.R.C (single replicates): 0.952 and 1.156 and 1.116
RPPA Rab25.R.V (single replicates): 0.918 and 1.136 and 1.098
RPPA Rad17_pS645.R.V (single replicates): 0.999 and 1.251 and 0.988
RPPA Rad23A.R.C (single replicates): 0.955 and 1.149 and 0.502
RPPA Rad50.R.V (single replicates): 1.003 and 1.194 and 0.770
RPPA Rad51.R.C (single replicates): 1.003 and 1.032 and 0.980
RPPA Raptor.R.V (single replicates): 0.960 and 1.161 and 0.962
RPPA Rb.M.Q (single replicates): 1.194 and 0.869 and 0.844
RPPA Rb_pS807_S811.R.V (single replicates): 1.080 and 1.099 and 0.998
RPPA Rheb.M.C (single replicates): 1.062 and 0.914 and 0.936
RPPA Rictor.R.C (single replicates): 1.000 and 1.032 and 1.026
RPPA Rictor_pT1135.R.V (single replicates): 1.014 and 1.199 and 1.106
RPPA S6.M.V (single replicates): 1.062 and 0.879 and 1.272
RPPA S6_pS235_S236.R.V (single replicates): 1.439 and 1.242 and 1.218
RPPA S6_pS240_S244.R.V (single replicates): 1.857 and 2.231 and 1.126
RPPA SCD.M.V (single replicates): 1.065 and 0.945 and 1.006
RPPA SDHA.R.V (single replicates): 0.933 and 1.191 and 1.108
RPPA SF2.R.V (single replicates): 1.031 and 0.941 and 1.112
RPPA SFRP1.R.V (single replicates): 1.004 and 0.892 and 0.990
RPPA SGK1.R.V (single replicates): 1.163 and 1.199 and 0.933
RPPA SGK3.R.V (single replicates): 0.990 and 0.992 and 0.997
RPPA SHP2.R.V (single replicates): 1.046 and 0.930 and 1.005
RPPA SHP.2_pY542.R.C (single replicates): 0.901 and 0.851
RPPA SIRPαR.V (single replicates): 1.213 and 0.860 and 0.910
RPPA SLC1A5.R.C (single replicates): 0.927 and 0.907 and 0.859
RPPA SOD1.M.V (single replicates): 0.996 and 0.939
RPPA SOD2.R.V (single replicates): 1.034 and 0.952 and 1.114
RPPA SOX7.R.V (single replicates): 0.983 and 0.930 and 0.848
RPPA STING.R.V (single replicates): 0.930 and 1.130 and 0.957
RPPA Shc_pY317.R.C (single replicates): 0.667 and 0.896
RPPA Slfn11.G.C (single replicates): 0.877 and 0.828 and 0.650
RPPA Smac.M.Q (single replicates): 0.952 and 1.016 and 0.799
RPPA Smad1.R.V (single replicates): 0.992 and 1.196 and 1.151
RPPA Smad3.R.V (single replicates): 0.939 and 1.113 and 0.837
RPPA Smad4.R.V (single replicates): 1.058 and 0.905 and 1.133
RPPA Snail.M.Q (single replicates): 1.030 and 0.955 and 1.052
RPPA Sox2.R.V (single replicates): 0.983 and 0.974 and 1.000
RPPA Sox17.R.V (single replicates): 0.873 and 0.902
RPPA Src.M.V (single replicates): 1.031 and 1.029 and 1.140
RPPA Src_pY416.R.V (single replicates): 1.004 and 0.964
RPPA Src_pY527.R.V (single replicates): 0.980 and 1.499
RPPA Stat1_pY701.R.V (single replicates): 1.025 and 0.919 and 0.955
RPPA Stat3.R.C (single replicates): 1.026 and 1.019
RPPA Stat3_pY705.R.C (single replicates): 1.097 and 0.794 and 0.850
RPPA Stat5a.R.V (single replicates): 0.973 and 1.401 and 1.115
RPPA Stathmin.1.R.V (single replicates): 0.937 and 0.952 and 1.084
RPPA Syk.M.V (single replicates): 0.889 and 1.061 and 1.011
RPPA Synaptophysin.R.C (single replicates): 1.047 and 0.925 and 1.079
RPPA TAZ.R.V (single replicates): 1.033 and 0.986 and 0.848
RPPA TEAD.R.C (single replicates): 0.869 and 1.210 and 0.956
RPPA TFAM.R.V (single replicates): 0.929 and 1.064 and 1.050
RPPA TFRC.R.V (single replicates): 0.850 and 0.994
RPPA TIGAR.R.V (single replicates): 1.007 and 1.053
RPPA TRAP1.M.V (single replicates): 1.020 and 0.986
RPPA TRIM24.R.C (single replicates): 1.055 and 0.901
RPPA TRIM25.R.C (single replicates): 0.917 and 1.142 and 1.151
RPPA TRIP13.R.V (single replicates): 1.080 and 0.849 and 0.914
RPPA Tau.M.C (single replicates): 0.914 and 1.000
RPPA Transglutaminase.M.V (single replicates): 1.130 and 0.535
RPPA level HLA.DQA1.R.V (single replicates): 0.968 and 1.061 and 0.815
RPPA level HLA.DR.DP.DQ.DX.R.C (single replicates): 0.974 and 0.976 and 0.833
RPPA level HMHA1.R.V (single replicates): 1.021 and 1.238 and 1.140
RPPA level HNRNPK.R.V (single replicates): 0.971 and 0.906
RPPA level HSP27.M.C (single replicates): 1.164 and 1.033
RPPA level HSP27_pS82.R.V (single replicates): 0.984 and 1.234 and 1.120
RPPA level HSP60.R.V (single replicates): 0.905 and 1.108
RPPA level HSP70.R.C (single replicates): 0.973 and 0.970
RPPA level Hexokinase.I.R.C (single replicates): 0.945 and 0.709
RPPA level Hexokinase.II.R.V (single replicates): 1.124 and 0.975 and 0.876
RPPA level Hif.1αR.C (single replicates): 1.102 and 1.349 and 0.701
RPPA level Histone.H3.R.V (single replicates): 0.982 and 1.330 and 0.576
RPPA level Histone.H3_pS10.R.V (single replicates): 0.692 and 0.713
RPPA level IDO.R.C (single replicates): 0.970 and 1.199 and 1.031
RPPA level IGF1R_pY1135_Y1136.R.V (single replicates): 0.923 and 1.035 and 1.147
RPPA level IGFBP2.R.V (single replicates): 0.536 and 0.864 and 1.227
RPPA level IGFBP3.M.V (single replicates): 0.749 and 0.955 and 1.168
RPPA level IGFRb.R.C (single replicates): 0.930 and 1.171
RPPA level IL.6.R.C (single replicates): 0.941 and 1.064 and 1.146
RPPA level IMP3.R.C (single replicates): 0.986 and 0.965
RPPA level INPP4b.R.C (single replicates): 1.116 and 0.899 and 0.832
RPPA level IR.b.R.C (single replicates): 1.320 and 1.103
RPPA level IRF.1.R.V (single replicates): 0.717 and 1.139 and 1.144
RPPA level IRF.3.R.V (single replicates): 0.919 and 1.034
RPPA level IRS1.R.V (single replicates): 0.981
RPPA level IRS2.R.C (single replicates): 0.999 and 0.927 and 0.986
RPPA level JAB1.M.C (single replicates): 1.009 and 0.971
RPPA level JNK2.R.V (single replicates): 0.702 and 1.165 and 0.800
RPPA level JNK_pT183_Y185.R.C (single replicates): 0.946 and 1.035 and 1.097
RPPA level Jagged1.R.V (single replicates): 0.958 and 1.186 and 0.974
RPPA level Jak2.R.V (single replicates): 0.877 and 1.121
RPPA level KAP1.R.V (single replicates): 1.023 and 0.961 and 0.759
RPPA level KEAP1.R.V (single replicates): 1.060 and 0.798 and 0.885
RPPA level LAD1.R.V (single replicates): 0.906 and 1.221 and 0.985
RPPA level LC3A.B.R.C (single replicates): 0.962 and 0.690
RPPA level LCN2.R.V (single replicates): 2.079 and 0.667 and 0.750
RPPA level LDHA.R.C (single replicates): 1.269 and 0.924 and 0.174
RPPA level LRP6_pS1490.R.V (single replicates): 0.923 and 1.082 and 1.190
RPPA level Lasu1.R.V (single replicates): 0.830 and 0.833
RPPA level Lck.R.V (single replicates): 0.914 and 1.025 and 0.835
RPPA level Lyn.R.V (single replicates): 0.857 and 0.712
RPPA level MACC1.R.V (single replicates): 0.983 and 0.952 and 1.126
RPPA level MAPK_pT202_Y204.R.C (single replicates): 0.962 and 0.989 and 1.287
RPPA level MCT4.R.V (single replicates): 0.631 and 1.046 and 1.198
RPPA level MDM2_pS166.R.V (single replicates): 0.981 and 1.059 and 0.658
RPPA level MEK1.R.V (single replicates): 0.979 and 2.685
RPPA level MEK1_pS217_S221.R.V (single replicates): 0.968 and 1.488 and 0.918
RPPA level MEK2.R.V (single replicates): 1.028 and 1.188 and 0.905
RPPA level MERIT40.R.C (single replicates): 0.976 and 0.913
RPPA level MERIT40_pS29.R.V (single replicates): 0.986 and 0.944
RPPA level METTL3.R.V (single replicates): 1.157 and 0.890 and 0.714
RPPA level MIF.R.C (single replicates): 0.954 and 1.000
RPPA level MIG6.R.V (single replicates): 1.004 and 0.977
RPPA level MITF.R.V (single replicates): 1.035 and 0.897
RPPA level MLH1.M.V (single replicates): 0.967 and 0.818
RPPA level MLKL.R.V (single replicates): 0.948
RPPA level MMP2.R.V (single replicates): 1.053 and 0.940 and 0.993
RPPA level MMP14.R.V (single replicates): 0.806 and 0.852 and 1.235
RPPA level MR1.M.C (single replicates): 0.985 and 1.126 and 0.989
RPPA level MRAP.R.C (single replicates): 1.027 and 1.099 and 1.056
RPPA level MSH2.R.C (single replicates): 0.981 and 0.975 and 0.839
RPPA level MSH6.R.C (single replicates): 0.974 and 1.034 and 0.768
RPPA level MSI2.R.C (single replicates): 1.007 and 0.996 and 1.009
RPPA level MTCO1.M.V (single replicates): 1.026 and 0.959 and 0.846
RPPA level MTSS1.M.C (single replicates): 0.922 and 1.002
RPPA level Mcl.1.R.V (single replicates): 0.903 and 1.197 and 1.129
RPPA level MelanA.R.C (single replicates): 0.929 and 1.064 and 1.083
RPPA level Melanoma.gp100.R.C (single replicates): 0.903 and 1.116 and 1.163
RPPA level Merlin.R.C (single replicates): 0.905 and 1.160 and 0.615
RPPA level Midkine.R.V (single replicates): 1.000 and 0.968 and 1.034
RPPA level Mitofusin.1.R.V (single replicates): 0.993 and 1.106 and 1.060
RPPA level Mitofusin.2.R.V (single replicates): 0.878 and 0.979
RPPA level Mnk1.R.V (single replicates): 1.011 and 1.102
RPPA level mTOR.R.V (single replicates): 1.085 and 1.120 and 0.844
RPPA level mTOR_pS2448.R.C (single replicates): 1.164 and 0.821
RPPA p21.R.C (single replicates): 1.391 and 0.730 and 1.025
RPPA p27.Kip1.R.C (single replicates): 1.014 and 0.921 and 0.908
RPPA p27_pT157.R.C (single replicates): 0.998 and 1.050 and 0.780
RPPA p27_pT198.R.V (single replicates): 0.905 and 1.281 and 1.122
RPPA p38.MAPK.R.V (single replicates): 1.001 and 1.097
RPPA p38.MAPK._pT180_Y182.R.V (single replicates): 0.866 and 2.597 and 1.276
RPPA p38.a.M.V (single replicates): 1.063 and 0.940 and 0.948
RPPA p44.42.MAPK.R.V (single replicates): 1.135 and 1.025 and 0.778
RPPA p53.R.C (single replicates): 0.836 and 1.157 and 1.162
RPPA p70.S6K1.R.V (single replicates): 1.053 and 0.972
RPPA p70.S6K_pT389.R.V (single replicates): 0.923 and 1.455 and 1.050
RPPA p90RSK_pT573.R.C (single replicates): 1.055 and 0.692
RPPA DNMT1.R.V (single samples): 0.942 and 1.005
RPPA DRP1.R.V (single samples): 1.048 and 0.924 and 1.058
RPPA DUSP4.R.V (single samples): 1.207
RPPA DUSP6.R.C (single samples): 1.757
RPPA DYRK1B.R.C (single samples): 1.023 and 0.961 and 1.055
RPPA Dvl3.R.V (single samples): 0.942 and 1.023 and 1.077
RPPA E2F1.R.V (single samples): 0.971 and 1.007 and 0.906
RPPA E.Cadherin.R.V (single samples): 0.967 and 0.935 and 0.968
RPPA EGFR.R.V (single samples): 0.950 and 1.055 and 0.936
